Source: patent US20240158446A1, “CYCLIC COMPOUND HAVING SELECTIVE INHIBITORY ACTION ON KRAS OVER HRAS AND NRAS” (CHUGAI SEIYAKU KABUSHIKI KAISHA, priority 2021, published 2024)
pKd: −log10 of the molar value. Like-named read-outs stand apart in the source and are kept apart here. *1 amine or outer side, *2 acyl side, *3 side chain or, on linkers, in order; H or OH if unused. Where a SMILES comes first, the peptide text is derived from it. Bridges are numbered along the chain shown (N, C = ends). [ ]: non-standard residue; d: D form. The star is where a group is joined. X39 = CC(C)CCN([C@@H](Cc1ccc(C(F)(F)F)cc1)C(=O)[*:2])[*:1]; hPhe(3-Cl-4-CF3) = N[C@@H](CCc1ccc(C(F)(F)F)c(Cl)c1)C(=O)O; NPrPhe(4-CF3) = CCCN[C@@H](Cc1ccc(C(F)(F)F)cc1)C(=O)O; NMeGly(cPent) = CN[C@H](C(=O)O)C1CCCC1; NMeD = CN[C@@H](CC(=O)O)C(=O)O; NMeL = CN[C@@H](CC(C)C)C(=O)O; Ac6c = NC1(C(=O)O)CCCCC1; Morpholide = C1CN(*)CCO1; NMeA = CN[C@@H](C)C(=O)O; Ac5c = NC1(C(=O)O)CCCC1; Aze = O=C(O)[C@@H]1CCN1; Sar = CNCC(=O)O

Columns and labels:
[1] = target: GDP-bound KRAS wild-type protein (Homo sapiens, UniProt P01116); assay: Binding to KRAS by surface plasmon resonance (SPR), Single Cycle Kinetics; details: GDP-bound KRAS wild-type protein, read-out: KRAS KD
Sequence of GDP-bound KRAS wild-type protein (P01116 whole entry): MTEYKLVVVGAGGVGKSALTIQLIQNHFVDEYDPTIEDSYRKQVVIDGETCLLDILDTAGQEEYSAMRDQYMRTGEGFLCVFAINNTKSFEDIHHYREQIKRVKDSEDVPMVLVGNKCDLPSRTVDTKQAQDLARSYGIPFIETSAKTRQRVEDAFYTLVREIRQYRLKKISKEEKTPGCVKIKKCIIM

[2] = target: GDP-bound NRAS wild-type protein (Homo sapiens, UniProt P01111); assay: Binding to NRAS by surface plasmon resonance (SPR), Single Cycle Kinetics; details: for NRAS/KRAS (ratio of KD value for NRAS to KD value for KRAS): SPR, GDP-bound NRAS wild-type protein vs GDP-bound KRAS wild-type protein; for NRAS/KRAS (ratio of KD value with respect to GDP-bound NRAS wild-type protein to KD value with respect to KRAS): SPR KD ratio NRAS/KRAS, class symbols
Sequence of GDP-bound NRAS wild-type protein (P01111 whole entry): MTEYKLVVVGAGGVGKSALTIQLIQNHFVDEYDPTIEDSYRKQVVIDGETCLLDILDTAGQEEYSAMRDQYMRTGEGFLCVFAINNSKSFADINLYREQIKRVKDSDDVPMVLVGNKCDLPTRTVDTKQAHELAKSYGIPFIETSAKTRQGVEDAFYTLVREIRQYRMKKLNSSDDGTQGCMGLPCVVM

[3] = target: GDP-bound HRAS wild-type protein (Homo sapiens, UniProt P01112); assay: Binding to HRAS by surface plasmon resonance (SPR), Single Cycle Kinetics; details: for HRAS/KRAS (ratio of KD value for HRAS to KD value for KRAS): SPR, GDP-bound HRAS wild-type protein vs GDP-bound KRAS wild-type protein; for HRAS/KRAS (ratio of KD value with respect to GDP-bound HRAS wild-type protein to KD value with respect to KRAS): SPR KD ratio HRAS/KRAS, class symbols
Sequence of GDP-bound HRAS wild-type protein (P01112 whole entry): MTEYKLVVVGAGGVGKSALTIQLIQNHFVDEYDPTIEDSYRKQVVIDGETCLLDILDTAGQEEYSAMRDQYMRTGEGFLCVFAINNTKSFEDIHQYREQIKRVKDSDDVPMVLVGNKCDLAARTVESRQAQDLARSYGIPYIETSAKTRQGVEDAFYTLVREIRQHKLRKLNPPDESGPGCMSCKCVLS

[4] = SPR, Single Cycle Kinetics, 1:1 binding model
[5] = SPR Single Cycle Kinetics, 1:1 binding model

Row | pKd [1, 4] | pKd [1, 5] | pKd ([1]; SPR, Single Cycle Kinetics) | SMILES | NRAS/KRAS (ratio of KD value for NRAS to KD value for KRAS) ([2]; KD ratio class) | HRAS/KRAS (ratio of KD value for HRAS to KD value for KRAS) ([3]; KD ratio class) | NRAS/KRAS (ratio of KD value for NRAS to KD value for KRAS) [2] | HRAS/KRAS (ratio of KD value for HRAS to KD value for KRAS) [3] | other results
1 | – | 9.32 | – | CCCN1C(=O)[C@@H]2CCN2C(=O)[C@H](C)N(C)C(=O)[C@H]([C@@H](C)CC)NC(=O)[C@H](CC(C)C)N(C)C(=O)C[C@@H](C(=O)N2CCOCC2)N(C)C(=O)[C@H](C2CCCC2)N(C)C(=O)C2(CCCC2)NC(=O)[C@@H]2CCN2C(=O)[C@H](CCc2ccc(C(F)(F)F)c(Cl)c2)NC(=O)CN(C)C(=O)[C@@H]1Cc1ccc(C(F)(F)F)cc1 [PP0281] ([NMeL]I[NMeA][Aze][NPrPhe(4-CF3)][Sar][hPhe(3-Cl-4-CF3)][Aze][Ac5c][NMeGly(cPent)][NMeD]-Morpholide; lactam N-11) | – | – | C (A compound having a KD ratio of 0.1 or more and less than 3 is denoted as C) | C (A compound having a KD ratio of 0.1 or more and less than 3 is denoted as C) | –
2 | – | 10.18 | – | CCO[C@@H]1C[C@H]2C(=O)NC3(CCCC3)C(=O)N(C)[C@@H](C3CCCC3)C(=O)N(C)[C@H](C(=O)N(C)C)CC(=O)N(C)[C@@H](CC(C)C)C(=O)N[C@@H]([C@@H](C)CC)C(=O)N(C)CC(=O)N(C)[C@H]3C/C=C\CCN(C3=O)[C@@H](Cc3ccc(C(F)(F)F)cc3)C(=O)N(C)CC(=O)N[C@@H](CCc3ccc(C(F)(F)F)c(Cl)c3)C(=O)N2C1 [PP2838] | – | – | – | – | NRAS/KRAS (ratio of KD value with respect to GDP-bound NRAS wild-type protein to KD value with respect to KRAS) [2]: AA (a compound having 20 or more is denoted as AA); HRAS/KRAS (ratio of KD value with respect to GDP-bound HRAS wild-type protein to KD value with respect to KRAS) [3]: A (a compound having 10 or more and less than 20 is denoted as A)
3 | – | – | 9.92 | CCCN(C)C(=O)[C@@H]1CC(=O)N(C)[C@@H](C2CC2)C(=O)N[C@@H]([C@@H](C)CC)C(=O)N(C)CC(=O)N(C)[C@H]2C/C=C\CCN(C2=O)[C@@H](Cc2ccc(C(F)(F)F)cc2)C(=O)N(C)CC(=O)N[C@@H](CCc2cc(F)c(C(F)(F)F)c(F)c2)C(=O)N2C[C@@H](C)C[C@H]2C(=O)NC2(CCC2)C(=O)N(C)[C@@H](C2CCCC2)C(=O)N1C [PP2081] | – | – | A (a compound having 10 or more and less than 20 is denoted as A) | A (a compound having 10 or more and less than 20 is denoted as A) | –
4 | – | 9.26 | – | CCCN1C(=O)CN(C)C(=O)CN(C)C(=O)[C@H]([C@@H](C)CC)NC(=O)[C@H](CC(C)C)N(C)C(=O)C[C@@H](C(=O)N2CCOCC2)N(C)C(=O)[C@H](C2CCCC2)N(C)C(=O)C2(CCCCC2)NC(=O)[C@@H]2CCCN2C(=O)[C@H](CCc2ccc(C(F)(F)F)c(Cl)c2)NC(=O)CN(C)C(=O)[C@@H]1Cc1ccc(C(F)(F)F)cc1 [PP0231] ([NMeL]I[Sar][Sar][NPrPhe(4-CF3)][Sar][hPhe(3-Cl-4-CF3)]P[Ac6c][NMeGly(cPent)][NMeD]-Morpholide; lactam N-11) | – | – | B (a compound having 3 or more and less than 10 is denoted as B) | C (A compound having a KD ratio of 0.1 or more and less than 3 is denoted as C) | –
5 | – | – | 9.37 | CCC[C@H]1C(=O)N[C@@H]([C@@H](C)CC)C(=O)N(C)CC(=O)N(C)[C@H]2C/C=C\CCN(C2=O)[C@@H](Cc2ccc(C)cc2)C(=O)N(C)CC(=O)N[C@@H](CCc2cc(F)c(C(F)(F)F)c(F)c2)C(=O)N2C[C@H](OCC)C[C@H]2C(=O)NC2(CC(C)(C)C2)C(=O)N(C)[C@@H](CC(F)(F)F)C(=O)N(C)[C@H](C(=O)N(C)C)CC(=O)N1C [PP2993] | – | – | A (a compound having 10 or more and less than 20 is denoted as A) | A (a compound having 10 or more and less than 20 is denoted as A) | –
6 | – | – | 10.52 | CCC[C@H]1C(=O)N[C@@H]([C@@H](C)CC)C(=O)N(C)CC(=O)N(C)[C@H]2C/C=C\CCN(C2=O)[C@@H](Cc2ccc(C(F)(F)F)cc2)C(=O)N(C)CC(=O)N[C@@H](CCc2ccc(C(F)(F)F)c(OC)c2)C(=O)N2C[C@H](OCC)C[C@H]2C(=O)N(C)C2(CCC2)C(=O)N(C)[C@@H](C2CCCC2)C(=O)N(C)[C@H](C(=O)N(C)C)CC(=O)N1C [PP2312] | – | – | A (a compound having 10 or more and less than 20 is denoted as A) | B (a compound having 3 or more and less than 10 is denoted as B) | –

The next lines start with the compound.

Row | SMILES | pKd [1, 4] | pKd [1, 5] | pKd ([1]; SPR, Single Cycle Kinetics) | NRAS/KRAS (ratio of KD value for NRAS to KD value for KRAS) ([2]; KD ratio class) | HRAS/KRAS (ratio of KD value for HRAS to KD value for KRAS) ([3]; KD ratio class) | NRAS/KRAS (ratio of KD value for NRAS to KD value for KRAS) [2] | HRAS/KRAS (ratio of KD value for HRAS to KD value for KRAS) [3] | other results
7 | CC[C@H](C)[C@@H]1NC(=O)[C@H](CC(C)C)N(C)C(=O)C[C@@H](C(=O)N(C)C)N(C)C(=O)[C@H](C2CCCC2)N(C)C(=O)C2(CCC2)NC(=O)[C@@H]2[C@@H](OCC(F)F)CCN2C(=O)[C@H](CCc2cc(F)c(C(F)(F)F)c(F)c2)NC(=O)CN(C)C(=O)[C@H](Cc2ccc(C(F)(F)F)cc2)N2CC/C=C\C[C@@H](C2=O)N(C)C(=O)CN(C)C1=O [PP1534, (2S,8S,13S,14S,20S,23S,27S,30S,36S,38Z)-20-cyclopentyl-13-(2,2-difluoroethoxy)-8-[2-[3,5-difluoro-4-(trifluoromethyl)phenyl]ethyl]-27-isobutyl-N,N,4,19,22,26,32,35-octamethyl-30-[(1S)-1-methylpropyl]-3,6,9,15,18,21,25,28,31,34,42-undecaoxo-2-[[4-(trifluoromethyl)phenyl]methyl]spiro[1,4,7,10,16,19,22,26,29,32,35-undecazatricyclo[34.5.1.0^10,14]dotetracont-38-ene-17,1′-cyclobutane]-23-carboxamide] | 9.89 | – | – | AA (a compound having 20 or more is denoted as AA) | A (a compound having 10 or more and less than 20 is denoted as A) | – | – | –
8 | CC[C@H](C)[C@@H]1NC(=O)[C@H](CC2CC2)N(C)C(=O)C[C@@H](C(=O)N(C)C)N(C)C(=O)[C@H](C2CCCC2)N(C)C(=O)C2(CCC2)NC(=O)[C@@H]2C[C@@H](C(F)(F)F)CN2C(=O)[C@H](CCc2cc(F)c(C(F)(F)F)c(F)c2)NC(=O)CN(C)C(=O)[C@H](Cc2ccc(C(F)(F)F)cc2)N2CC/C=C\C[C@@H](C2=O)N(C)C(=O)CN(C)C1=O [PP1498] | 10.16 | – | – | A (a compound having 10 or more and less than 20 is denoted as A) | A (a compound having 10 or more and less than 20 is denoted as A) | – | – | –
9 | CC[C@H](C)[C@@H]1NC(=O)[C@H](CC(C)C)N(C)C(=O)C[C@@H](C(=O)N2CCOCC2)N(C)C(=O)[C@H](C2CCCC2)N(C)C(=O)C2(CCCC2)NC(=O)[C@@H]2CCCN2C(=O)[C@H](CCc2ccc(C(F)(F)F)c(Cl)c2)NC(=O)CN(C)C(=O)[C@H](Cc2ccc(C(F)(F)F)cc2)N(CCC(C)C)C(=O)CN(C)C(=O)CN(C)C1=O [PP0126] ([NMeL]I[Sar][Sar][X39][Sar][hPhe(3-Cl-4-CF3)]P[Ac5c][NMeGly(cPent)][NMeD]-Morpholide; lactam N-11) | – | 9.37 | – | – | – | C (A compound having a KD ratio of 0.1 or more and less than 3 is denoted as C) | C (A compound having a KD ratio of 0.1 or more and less than 3 is denoted as C) | –
10 | CCO[C@@H]1C[C@H]2C(=O)NC3(CC(C)(C)C3)C(=O)N(C)[C@@H](C3CCCC3)C(=O)N(C)[C@H](C(=O)N3CCCCC3)CC(=O)N(C)[C@H]3CCC/C=C/c4ccc(cc4)C[C@@H](C(=O)N(C)CC(=O)N[C@@H](CCc4cc(F)c(C(F)(F)F)c(F)c4)C(=O)N2C1)N1CC/C=C\C[C@@H](C1=O)N(C)C(=O)CN(C)C(=O)[C@H]([C@@H](C)CC)NC3=O [PP2573] | – | 10.00 | – | – | – | – | – | NRAS/KRAS (ratio of KD value with respect to GDP-bound NRAS wild-type protein to KD value with respect to KRAS) [2]: A (a compound having 10 or more and less than 20 is denoted as A); HRAS/KRAS (ratio of KD value with respect to GDP-bound HRAS wild-type protein to KD value with respect to KRAS) [3]: A (a compound having 10 or more and less than 20 is denoted as A)
11 | CCO[C@@H]1C[C@H]2C(=O)NC3(CCC3)C(=O)N(C)[C@@H](C3CCCC3)C(=O)N(C)[C@H](C(=O)N(C)C)CC(=O)N(C)[C@@H](CC3CCCC3)C(=O)N[C@@H]([C@@H](C)CC)C(=O)N(C)CC(=O)N(C)[C@H]3C/C=C\CCN(C3=O)[C@@H](Cc3ccc(C)cc3)C(=O)N(C)CC(=O)N[C@@H](CCc3ccc(Cl)c(Cl)c3)C(=O)N2C1 [PP1487] | 9.47 | – | – | A (a compound having 10 or more and less than 20 is denoted as A) | A (a compound having 10 or more and less than 20 is denoted as A) | – | – | –
12 | CCO[C@@H]1C[C@H]2C(=O)NC3(CCC3)C(=O)N(C)[C@@H](C3CCCC3)C(=O)N(C)[C@H](C(=O)N(C)CCOC)CC(=O)N(C)[C@@H](CC(F)F)C(=O)N[C@@H]([C@@H](C)CC)C(=O)N(C)CC(=O)N(C)[C@H]3C/C=C\CCN(C3=O)[C@@H](Cc3ccc(C(F)(F)F)cc3)C(=O)N(C)CC(=O)N[C@@H](CCc3cc(F)c(C(F)(F)F)c(F)c3)C(=O)N2C1 [PP1320] | 10.24 | – | – | A (a compound having 10 or more and less than 20 is denoted as A) | A (a compound having 10 or more and less than 20 is denoted as A) | – | – | –
13 | CCO[C@@H]1C[C@H]2C(=O)NC3(CC(C)(C)C3)C(=O)N(C)[C@@H](C3CCCC3)C(=O)N(C)[C@H](C(=O)N(C)CC)CC(=O)N(C)[C@@H](C(C)C)C(=O)N[C@@H]([C@@H](C)CC)C(=O)N(C)CC(=O)N(C)[C@H]3C/C=C\CCN(C3=O)[C@@H](Cc3ccc(C(F)(F)F)cc3)C(=O)N(C)CC(=O)N[C@@H](CCc3cc(F)c(C(F)(F)F)c(F)c3)C(=O)N2C1 [PP2034] | – | – | 9.72 | – | – | A (a compound having 10 or more and less than 20 is denoted as A) | A (a compound having 10 or more and less than 20 is denoted as A) | –
